Test results published in a melting point compilation (Tetko et al.; mined from patent text by program, amines drawn as free bases though some values may be those of a salt).

For `O=C1Cc2cccc(Sc3ccc(Cl)cc3)c2N1`, the melting point was 186 to 188 °C.
In the case of `CC(c1ccc2ncccc2c1)n1nnc2ccc(-c3ccc(C(N)=O)c(Cl)c3)nc21` (centres undefined), the melting point is reported as 140 to 143 °C.
Work on `O=C(NCc1ccc(F)cc1)c1ccnc(N2CCN(Cc3ccc(F)cc3)C2=O)c1` yielded a melting point of 173 to 175 °C.
`c1ccc2nc(COc3cccc4ccccc34)ccc2c1` gave a melting point of 99 to 101 °C.
`COc1ccc2c(c1)c1c(n2-c2ccccc2)C(=O)CO1` gave a melting point of 175 °C.
`COc1cc(Br)nc2[nH]cc(C(C)=O)c12` showed a melting point greater than 210 °C.
Molecule `Cn1c(=O)n(CCCC2(C)OCCO2)c(=O)c2c1ncn2Cc1ccccc1` has a melting point of 104 to 105 °C.
`Cc1oc(-c2ccccc2)nc1CCc1ccc(C=CC=O)cc1` showed a melting point of 99 to 100 °C.
Molecule `O=C(C=Cc1ccc(Cl)cc1)C(Cc1ccccc1)c1ccccc1` (centres undefined) has a melting point of 113 to 115 °C.
Molecule `CC1(C)CC(Oc2nc(Cl)nc(N3C(C)(C)CCCC3(C)C)n2)CC(C)(C)N1O` has a melting point of 152 to 153 °C.
For `OC(Cn1ccnc1)C12CC3CC(CC(C3)C1)C2` (centres undefined), the melting point was 226 to 228 °C.
In the case of `CC1(N)CN(c2nc3c(cc2F)c(=O)c(C(=O)O)cn3C2CC2)C1`, the melting point is reported as 285 to 287 °C.
Work on `Cc1nc(-c2cc3cc(OCCNC[C@@H](O)c4csc(C(F)(F)F)n4)ccc3o2)no1` yielded a melting point of 143 to 146 °C.
Work on `CNc1cc(Oc2cccc(C(F)(F)F)c2)nc(C(=O)NC(C)C)c1` yielded a melting point of 89 to 90 °C.
`Nc1ncccc1C(=O)NCC1CCN(CC2COc3ccc(F)cc3O2)CC1` (centres undefined) showed a melting point of 141 to 143 °C.
In the case of `O=C1OCCC1C(=O)c1ccc(F)cc1[N+](=O)[O-]` (centres undefined), the melting point is reported as 87 to 89 °C.
Work on `Cn1ncc2c(C(F)(F)F)cc(Cl)nc21` yielded a melting point of 123 °C.
Molecule `CCN1C(=O)CCCc2ccc(Nc3ncc(Cl)c(Nc4c(C)cccc4C(=O)NC)n3)cc21` has a melting point of 210 to 212 °C.
`CC(C)(C)OC(=O)N[C@@H](Cc1ccccc1)[C@@H](O)[C@@H](O)C1CC1` showed a melting point of 83 to 85 °C.
With `CCOCc1oc(-c2ccc(C(F)(F)F)cc2)cc1C(=O)OCC` the melting point was 103 to 105 °C.
For `Cn1cc(C(N)=O)c(=O)c2cc(F)ccc21`, the melting point was 295 to 299 °C.
`CC(=O)C(Cc1cc(Cl)cc(Cl)c1)C(C)=O` showed a melting point of 85 to 87 °C.
Work on `CC(C)CNCc1cnc2[nH]c(-c3cc(OCc4ccccc4)ccc3OC(C)C)nc2c1` yielded a melting point of 101 to 103 °C.
Work on `C[C@@H](c1ccc(-c2ccc(C(=O)NC3CC3)cn2)cc1)N1CC[C@](CC(C)(C)O)(c2ccccc2)OC1=O` yielded a melting point of 191 to 194 °C.
With `CCNC(=O)Nc1ccc(Oc2ccc3nc(COc4ccc(CC5SC(=O)NC5=O)cc4)n(C)c3c2)cc1` (centres undefined) the melting point was 227 to 230 °C.
Molecule `C=CCOc1cc(NC(=O)C2=C(C(=O)N(C)C)CCCC2)ccc1Cl` has a melting point of 129 to 131 °C.
For `N[C@H]1CC[C@@H](n2ccc(-c3ccc(F)cc3)c2-c2ccncc2)CC1`, the melting point was 163 to 164 °C.
With `Cc1c(SCCN2CCOCC2)ccnc1CSc1nc2ccccc2n1CCO` the melting point was 141 to 143 °C.
With `CC(=O)OC1(C)CCCCC1C1CCCCC1` (centres undefined) the melting point was 35 °C.
Molecule `CCNC(=O)c1c(Cl)cc(C=O)cc1[Si](C)(C)C` has a melting point of 95 to 97 °C.
Molecule `O=C(O)CC1SCCOC1=O` (centres undefined) has a melting point of 96 to 98 °C.
Work on `CCN1C(=O)OC(C)(C)c2cc(-c3cc(F)cc(C#N)c3)ccc21` yielded a melting point of 154 to 155 °C.
`COC(=O)c1sc(S(C)(=O)=O)cc1O` showed a melting point of 138 to 140 °C.
`CCOC(=O)CSc1nc(N)cc(Cl)n1` gave a melting point of 113 to 116 °C.
In the case of `CCn1cc(C)c(NS(=O)(=O)c2ccc(N)cc2)nc1=O`, the melting point is reported as 176 to 178 °C.
`Cc1cccc(-c2[nH]c(C(C)C)nc2-c2cccc(-c3cccs3)c2)n1` showed a melting point of 73 to 76 °C.
For `O=C(Cc1ccccc1Cl)N[C@H]1C[C@H](C(=O)O)Nc2cc(Cl)cc(Cl)c21` (relative stereo), the melting point was 244 to 245 °C.
Molecule `COc1ccc(-c2cc(S(=O)(=O)c3ccc(N)cc3)cc(N3CCCC3)n2)cc1` has a melting point of 227 to 229 °C.
`CC(C)(C)OC(=O)N(Cc1ccccc1)S(N)(=O)=O` showed a melting point of 127 °C.
`COc1nc2ncccc2c2nc(S(=O)(=O)Nc3c(Cl)cccc3Cl)nn12` showed a melting point of 290 to 293 °C.
With `CCOC(=O)c1c(N)nc(C)c(NC(C)=O)c1C` the melting point was 168 to 170 °C.
`Cc1nnc(-c2ccccc2F)n2nc(OCc3ncnn3C)c(-c3ccoc3)c12` gave a melting point of 150 to 153 °C.
With `COc1ccc(C(O)(c2ccc3c(c2)c(-c2cccc(Cl)c2)nc2nnnn23)c2cncn2C)cc1` (centres undefined) the melting point was 200 °C.
In the case of `COc1cc2nc(N3CCN(c4nc5ccccc5[nH]4)CC3)nc(N)c2cc1OC`, the melting point is reported as greater than 250 °C.
For `COc1ccc(NC(=O)c2ccc(Cl)c(Cl)c2)cc1NCc1cccs1`, the melting point was 185 to 188 °C.
With `CCCCN1CC(=O)N2[C@@H](c3ccc(NC(C)=O)cc3)c3[nH]c4ccccc4c3C[C@@H]2C1=O` (relative stereo) the melting point was 246 °C.
For `CCOC(=O)C1=C(C)NC(c2cscn2)=NC1c1ccccc1F` (centres undefined), the melting point was 126 to 128 °C.
`CCn1c(Br)cc2c(C)nc3c(Br)cnn3c21` gave a melting point of 135 to 137 °C.
`CCn1c(Nc2cc(C(F)(F)F)ccc2C(F)(F)F)nc(C(F)(F)F)c(Cl)c1=O` gave a melting point of 144 to 146 °C.
`Nc1ccc(S(=O)(=O)c2cnc(N)s2)cc1` showed a melting point of 218 to 219 °C.
For `CCCCN1CCSC1c1nsc2ccc(-n3c(=O)cc(C(F)(F)F)n(C)c3=O)cc12` (centres undefined), the melting point was 78 to 82 °C.
For `O=C(c1cccnc1)c1cc(Br)cc(Br)c1`, the melting point was 124 to 126 °C.
With `CCOC(=O)COc1ccc(NC(=O)c2sc(NC(=N)N)nc2C)cc1` the melting point was 223 °C.
`CC(C)(C(N)=O)C(O)(Cn1cncn1)c1ccc(Cl)cc1Cl` (centres undefined) showed a melting point of 162 to 163 °C.
For `CCCCc1nc2ccc([C@H]3C[C@H](CO)ON3C)cc2c(=O)n1Cc1ccc(-c2ccccc2-c2nnn[nH]2)cc1` (relative stereo), the melting point was 110 °C.
With `COc1ccc(C(=O)Nc2ccccc2)c(C)c1` the melting point was 149 to 150 °C.
In the case of `Cn1c(CC(=O)O)cc2c1C(=O)c1sccc1CC2`, the melting point is reported as 157 to 158 °C.
`CCOC(=O)NNc1cc(-c2ccc(OC)cc2)c(-c2ccc(OC)cc2)nn1` gave a melting point of 212 to 214 °C.
In the case of `COc1ccc(N(CC(=O)NCCC(=O)O)C(=O)c2ccc(Cl)cc2)cc1`, the melting point is reported as 129 to 131 °C.
`COc1ccc(OC)c2c1C(=O)C=C(SCCC(=O)O)C2=O` gave a melting point of 208 to 209 °C.
`CC(=O)C(=NNc1ccccc1)C(=O)OCC(C)C` gave a melting point of 45 to 50 °C.
`CCCC(=O)OCC(=O)C1C(C)CC2C3=C(C(O)CC21C)C1(C)C=CC(=O)C=C1C(F)C3` (centres undefined) showed a melting point of 112 °C.
`CCCCOc1c(CO)n(CC(C)(C)C)c(=O)c2ccc(F)cc12` gave a melting point of 143 to 144 °C.
In the case of `O=C1NC(c2ccccc2)(c2ccccc2)C(=O)N1CO`, the melting point is reported as 185 to 189 °C.
With `FC(F)(F)c1ccc(C(Cl)=NN=Cc2ccccc2)cc1` the melting point was 95 to 96 °C.
In the case of `NC(Cc1cc(CP(=O)(O)O)cc(-c2ccc(Cl)cc2)c1)C(=O)OCC=Cc1ccccc1` (centres undefined), the melting point is reported as 253 to 255 °C.
For `O=C(OCc1ccccc1)c1cc(Cl)nc(Cl)c1`, the melting point was 39 to 41 °C.
`Cn1nc(C=O)cc1C(C)(C)CNC(=O)c1ccccc1` gave a melting point of 150 to 151 °C.
With `CCCCc1nc2c(N)nc3ccccc3c2n1CCOCc1ccccc1` the melting point was 133 to 135 °C.
In the case of `CNC(=O)c1cc2ccccc2c(-c2cccc(I)c2)n1`, the melting point is reported as 172 to 174 °C.
For `Nc1nc(N)c2nc(-c3cccc(O)c3)cnc2n1`, the melting point was greater than 300 °C.
`CNC(=O)N1CCC(=C2c3ccc(Cl)cc3CCc3cccnc32)CC1` gave a melting point of 194 to 196 °C.
In the case of `NC(=O)c1sc2nccc(N3CCN(c4ccccc4)CC3)c2c1N`, the melting point is reported as 250 to 252 °C.
For `Oc1cnccc1CCCOc1cccnc1Cc1cccc(Br)c1`, the melting point was 138 to 139 °C.
In the case of `CN1C(=O)CN2CCNC2(c2ccccc2)c2cc(Cl)ccc21` (centres undefined), the melting point is reported as 164 to 167 °C.
Molecule `COc1ccc2c(c1)S(=O)(=O)N(C(OC(=O)c1sccc1Cl)C(C)C)C2=O` (centres undefined) has a melting point of 138 to 140 °C.
With `COc1ccc([C@H]2Cc3c(cccc3C(F)(F)F)NC(=O)[C@H]2OC(=O)c2ccccc2C(=O)O)cc1` (relative stereo) the melting point was 161 to 162 °C.
In the case of `Brc1ccc2nc(COc3ccc(CCCn4ccnc4)cc3)cn2c1`, the melting point is reported as 103 to 104 °C.
Work on `Cc1cccc(NC(=O)NCC(=O)N(CC(=O)Nc2cccc3cccnc23)c2ccccc2)c1` yielded a melting point of 170 °C.
With `CC1(C)C(=O)Nc2ccc(-c3cccc([N+](=O)[O-])c3)cc21` the melting point was 234 to 235 °C.
Work on `Fc1c(Cl)cccc1/C=C/c1noc(C(Cl)(Cl)Cl)n1` yielded a melting point of 37 to 38 °C.
Molecule `CS(=O)(=O)n1ccc2cc3c(cc21)C(C#N)C3` (centres undefined) has a melting point of 142 to 144 °C.
`O=c1[nH]c2ccc(Cn3ccnc3)cc2[nH]c1=O` showed a melting point greater than 300 °C.
With `Cn1nnnc1CC(=O)c1ccccc1N` the melting point was 128 to 132 °C.
In the case of `CCCc1nc(C(=O)OC)c(C(=O)OC)n1Cc1ccc(-c2ccccc2-c2nnnn2C(c2ccccc2)(c2ccccc2)c2ccccc2)cc1`, the melting point is reported as 124 to 126 °C.
For `Cc1cccc2c1C(=O)N(C1(C(=O)Nc3ccc(Cl)cc3)CCCCC1)C2=O`, the melting point was 208 to 209 °C.
`COc1cc(C(C)C)ccc1C1COc2c(C)c(C)c(Br)c(C)c21` (centres undefined) gave a melting point of 102 to 103 °C.
In the case of `NC(=O)c1nc(-c2cccc(O)c2)nc2c1[nH]c(=O)n2C1CCCC1`, the melting point is reported as 360 to 361 °C.
In the case of `COc1cc(C)c(C(=O)c2c(Cl)cccc2Cl)c(O)c1O`, the melting point is reported as 182 °C.
Molecule `Nn1c(=O)c(=O)[nH]c2c(Br)cc(Br)cc21` has a melting point of 273 to 275 °C.
With `CC(=O)Nc1ccc2[nH]c(CO)cc2c1` the melting point was 161 °C.
With `COC(=O)C(F)(F)C1(C(F)(F)C(=O)OC)OCCO1` the melting point was 66.5 to 67.5 °C.
Molecule `Cc1cccc2c1nc(COc1ccc(Cl)cc1)n2CCC(C)CN(C)C` (racemic) has a melting point of 80 to 82 °C.
Molecule `CC(=O)N[C@@H](CS)C(=O)NCCSC(C)=O` has a melting point of 153 to 154 °C.
Molecule `COc1ccc(C2COc3cc(OC(=O)C(C)(C)C)ccc3C2(O)Cc2ccc(OCc3ccccc3)cc2)cc1` (centres undefined) has a melting point of 104 to 111 °C.
Work on `CS(=O)(=O)N(Cc1ccncc1)Cc1ccccc1F` yielded a melting point of 69 to 70 °C.
Molecule `Cc1n[nH]c2cc(F)c(C3C(C#N)=C(C(F)F)NC(C(F)F)=C3C#N)cc12` has a melting point of 282 °C.
In the case of `Cc1ccc(Cl)c(Nc2ccccc2C(=O)CS(C)=O)c1Cl` (centres undefined), the melting point is reported as 152 to 154 °C.
With `O=c1c2sc3ccccc3c2oc2cc(O)cc(O)c12` the melting point was greater than 300 °C.
